Key:
[1] = molecular target: T1, HLA-A2.1 antigens on T2 cell surface (Homo sapiens, UniProt P04439, D140Y/D185E/D98H/E176V/E277Q/G131W/G231S/I119V/I121R/I166T/I218V/L300P/L318F/N151K/N90K/P208A/P217A/Q86G/Q94H/R138H/R169H/T345S); test: T2 cell binding assay; type: cell-based; conditions: T2 cells, 10 μg/ml synthetic peptide, 20 hours at 26° C., flow cytometry
T1 construct: endogenous in cells; host or cells: T2 cells
Source text: The binding test of the peptide in the invention was subjected to a T2 cell binding assay to measure the binding affinity for HLA-A2.1 antigens on T2 cell surface. T2 cells lack genes coding for transporter proteins for antigenic peptides (TAP1/TAP2) and therefore is not able to translocate peptide antigens processed by cells into the endoplasmic reticulum (ER). […] Therefore, the synthetic peptide antigens were used directly, not through cell processing, for the binding test with HLA-A2.1 antigens on T2 cell surface.
T2 cells that had been incubated overnight at 26° C. in RPMI 1640 containing 5% fetal bovine serum (FBS) were mixed with 10 μg/ml of pre-prepared synthetic peptide for 20 hours at 26° C. in RPMI containing 5% FCS and 5 μg/ml human β 2-microglobulin (β 2 m). The cells were then washed twice, incubated at 37° C. for 2 hours. […] Then the cells were incubated with fluorescein isothiocyanate (FITC) labeled anti-human HLA-A2.1 antibodies (BD Biosciences Pharmingen) to stain HLA-A2.1. The stains were fixed with 1% paraformaldehyde, and analyzed by flow cytometry. Because the binding of synthetic peptides and HLA-A2.1 antigens would be presented on the surface of lymphocytes, which could be recognized and bound by anti-human HLA-A2.1 antibodies. Therefore the fluorescein indicated the binding of synthetic peptides.

[2] = tested on: β-lymphocyte (HMy2.CIR, ATCC No.: CRL-1993) target cells; test: Cytotoxicity assay (CTL activity); type: cell-based; conditions: splenocytes of immunized mice as effector cells
Procedure: The β-lymphocyte (HMy2.CIR, ATCC No.: CRL-1993) target cells were labeled with PKH-26 and carboxyfluorescein diacetate succinimidyl ester (CFSE). 4-6 week-old HLA-A2.1 transgenic C57BL/6 mice were immunized as described in Example 2 with 100 μl of the same dosage of SEQ ID NO: 1 peptide in adjuvant of CpG oligodeoxynucleotide via intramuscular injection three times at one week intervals. Five days after the third immunization, the splenocytes of mice were recovered as effector cells and incubated with the target cells […].
Target cells labeled with two dyes were cultivated in the absence of effector cells as the control group. When membrane damage occurs, the dye is almost instantaneously lost and the cells are no longer able to take up the charged dye.

[3] = tested on: CD8+IFN-γ+ double-positive cells; test: In vivo induction of CD8 T cells proliferation; set-up: species or system HLA-A2.1 transgenic C57BL/6 mice
Procedure: 4-6 week-old HLA-A2.1 transgenic C57BL/6 mice were immunized with 100 μl containing 100 μg of SEQ ID NO: 1 peptide in adjuvant at 0.2 μM of CpG phosphorethioate oligodeoxynucleotide 1826 (CpG ODN 1826) via intramuscular injection three times at one week intervals. Five days after the third immunization, the splenocytes of mice were recovered and the numbers of CD8^+IFN-γ^+ double-positive cells were measured using flow cytometry analyses.

Substance | fluorescence intensity (FITC anti-human HLA-A2.1 staining) [1] | cytolytic activity ([2]; ET ratio 10) | cytolytic activity ([2]; ET ratio 150) | number of CD8+IFN-γ+ double-positive cells ([3]; splenocytes five days after third immunization, 100 μg peptide with CpG ODN 1826, intramuscular, three times at one week intervals) | increase of CD8+IFN-γ+ double-positive cells in comparison to the irrelevant stimulator ([3]; splenocytes of immunized mice vs control group)
SEQ ID NO: 1: synthetic 9-amino-acid peptide, 63th to 71th amino acid sequence of HPV-16 E5 protein (YIIFVYIPL; Human papillomavirus type 16) | around 22% | 18% | 33% | 0.32% | about 4 fold
positive control: HLA-A2.1 binding peptide obtained from tyrosinase peptide 369-377, positive control [reference compound] | around 35% | – | – | – | –
